From US20090123940A1, “MOLECULES INVOLVED IN SYNAPTOGENESIS AND USES THEREFOR” (THE JOHNS HOPKINS UNIVERSITY, priority 2007, published 2009)

Legend:
[1] = tested on: NPR-myc and GluR2-HA in COS-7 cells; assay: Live staining of NPR clusters in transfected COS-7 cells after PMA; format: cell-based
Method: Immunocytochemical staining. Immunocytochemical staining of heterologous cells was performed as described (Xu et al., supra). For PMA-stimulation experiments, PMA (Sigma Cat #: P8139) at (150 nM) was added 90 minutes prior to live staining. Images were viewed and captured using Nikon E800 epifluorescence microscope fitted with a Princeton Instruments CCD camera. For live staining, neurons cultured on coverslips were incubated at 10° C. with the appropriate primary antibodies at the indicated dilutions in conditioned culture medium for 20 min. They were then washed with PBS and fixed with 4% paraformaldehyde/4% sucrose in PBS for 20 min at room temperature. Cells were permeablized with 0.2% Triton X-100 in PBS for 5 min and then blocked in 10% normal goat serum in PBS for 1 hr at room temperature. […] For quantification of the punctate structures (e.g. GluR1), images were thresholded by grey value to differentiate single puncta. Segments of dendrites were selected and number of puncta was calculated per […] of length dendrite. Figures show ratios of calculated mean densities (number of puncta per unit length) from treated/control. Error bars were calculated using SEM and Gaussian error propagation. n=number of measured dendrites. Significance was determined by paired Student's T-test. […]

[2] = tested on: NPR cleavage at Site A (TACE); assay: NPR cleavage assay in transfected HEK293T cells; format: cell-based, rat; conditions: PMA 150 nM, cells transfected with NPR
Method: Cleavage Assay HEK293T cells were plated in OptiMEM (Invitrogen, Carlsbad, Calif.) containing 5% FBS onto 6-well dishes at a density of 4×10^5 cells/mL (2 mL/well) 1 day before transfection. Cells were transfected with NPR in pRK5 using LipofectAMINE 2000 (Invitrogen, Carlsbad Calif.). After 24 hr the medium was replaced with serum-free OptiMEM. […] Samples from each well were obtained at specific time points, immediately placed on ice, centrifuged at 15,000 g to remove cell debris, and then treated with 2% β-mercaptoethanol containing loading buffer. At the end of the time course, the cells were lysed with RIPA buffer, centrifuged to remove cell debris, and treated with 2% β-mercaptoethanol in loading buffer. Samples (20 μL of medium or lysate diluted to 1/5) were run on SDS-PAGE gels and analyzed by Western blotting.

[3] = tested on: Narp association with AMPA receptor subunits; assay: Co-immunoprecipitation of Narp with AMPA receptor subunits in HEK-293 cells; format: cell-based; conditions: 1 mM tunicamycin
From the text: Co-immunoprecipitation experiments were used to examine whether Narp is physically associated with AMPA receptors in HEK-293 cells.

Molecule | NPR distribution on COS-7 cells expressing NPR-myc ([1]; PMA 150 nM, 90 min) | clustering of NPR and GluR2 in COS-7 cells co-transfected with NPR-myc and GluR2-HA ([1]; PMA treated) | accumulation of LFC-NPR in the medium [2] | association between Narp and AMPA receptor subunits [3]
CCCCCCCCCCCCCC(=O)O[C@@H]1[C@@H](C)[C@@]2(O)[C@@H](C=C(CO)C[C@]3(O)C(=O)C(C)=C[C@@H]23)[C@@H]2C(C)(C)[C@]12OC(C)=O [PMA, phorbol myristate acetate] | large clusters of NPR were detected | exhibited co-clusters of NPR and GluR2 | increased the accumulation of LFC-NPR in the medium | 
tunicamycin |  |  |  | no effect
